# Molecular target: T1, hCRTH2 (Homo sapiens, UniProt Q9Y5Y4)
# T1 construct: expressed in transfected cells; host or cells: HEK (human embryonic kidney) cells expressing hCRTH2; membrane preparation
# T1 sequence (Q9Y5Y4 1-395): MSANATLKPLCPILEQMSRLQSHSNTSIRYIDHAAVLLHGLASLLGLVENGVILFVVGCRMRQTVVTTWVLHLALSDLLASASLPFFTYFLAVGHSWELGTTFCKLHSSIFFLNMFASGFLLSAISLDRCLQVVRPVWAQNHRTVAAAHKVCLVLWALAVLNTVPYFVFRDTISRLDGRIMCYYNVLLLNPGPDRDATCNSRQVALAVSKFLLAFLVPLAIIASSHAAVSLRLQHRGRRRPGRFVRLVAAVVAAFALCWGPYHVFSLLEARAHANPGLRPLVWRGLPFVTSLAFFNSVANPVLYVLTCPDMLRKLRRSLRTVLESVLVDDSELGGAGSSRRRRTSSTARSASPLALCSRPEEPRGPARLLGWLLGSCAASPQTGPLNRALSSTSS
# Assay: Radioligand binding assay ([3H]PGD2 competition, HEK-hCRTH2 membranes)
# Conditions: [3H]PGD2 binding, values in text
# Method in brief: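 Competition binding with 3.0 nM [3H]PGD2 and 8-20 μg HEK-hCRTH2 membrane protein in 50 mM Tris-HCl pH 7.4, 1 mM EDTA, 2 mM MnCl2, 1% Me2SO, 60 min at room temperature. Nonspecific binding defined with 10 μM PGD2; bound radioactivity counted after filtration.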
row,SMILES,Ki [nM]
1,"CC(c1ccon1)N(C)C(=O)c1ccc2nc(-c3ccc(Cl)cc3)c(CCCCC(=O)O)nc2c1 (stereo not shown) [compound 657, 5-(3-(4-chlorophenyl)-7-((1-(isoxazol-3-yl)ethyl)(methyl)carbamoyl)quinoxalin-2-yl) pentanoic acid]",37.4

# Same assay, conditions: [3H]PGD2 competition, Table B
row,SMILES,Ki [nM]
1,"CC(c1ccoc1)N(C)C(=O)c1ccc2nc(-c3ccc(Cl)cc3)c(CCCCC(=O)O)nc2c1 (stereo not shown) [compound 649, 5-(3-(4-chlorophenyl)-7-((1-(furan-3-yl)ethyl)(methyl)carbamoyl)quinoxalin-2-yl) pentanoic acid]",20.1 to 200
2,"O=C(O)CCCCc1nc2cc(C(=O)N3CCCC3c3ccncc3)ccc2nc1-c1ccc(Cl)cc1 (stereo not shown) [compound 650, 5-(3-(4-chlorophenyl)-7-(2-(pyridin-4-yl)pyrrolidine-1-carbonyl)quinoxalin-2-yl)pentanoic acid]",20.1 to 200
3,"Cn1ccnc1C1CCCCN1C(=O)c1ccc2nc(-c3ccc(Cl)cc3)c(CCCCC(=O)O)nc2c1 (stereo not shown) [compound 651, 5-(3-(4-chlorophenyl)-7-(2-(1-methyl-1H-imidazol-2-yl)piperidine-1-carbonyl)quinoxalin-2-yl)pentanoic acid]",20.1 to 200
4,"Cc1nonc1C1CCCN1C(=O)c1ccc2nc(-c3ccc(Cl)cc3)c(CCCCC(=O)O)nc2c1 (stereo not shown) [compound 652, 5-(3-(4-chlorophenyl)-7-(2-(4-methyl-1,2,5-oxadiazol-3-yl)pyrrolidine-1-carbonyl)quinoxalin-2-yl)pentanoic acid]",2.1 to 20
5,"O=C(O)CCCCc1nc2cc(C(=O)N3CCCCCC3c3cccnc3)ccc2nc1-c1ccc(Cl)cc1 (stereo not shown) [compound 653, 5-(3-(4-chlorophenyl)-7-(2-(pyridin-3-yl)azepane-1-carbonyl)quinoxalin-2-yl)pentanoic acid]",201 to 700
6,"O=C(O)CCCCc1nc2cc(C(=O)N3CCCCC3c3nccs3)ccc2nc1-c1ccc(Cl)cc1 (stereo not shown) [compound 654, 5-(3-(4-chlorophenyl)-7-(2-(thiazol-2-yl)piperidine-1-carbonyl)quinoxalin-2-yl)pentanoic acid]",20.1 to 200
7,"Cc1csc(C(C)N(C)C(=O)c2ccc3nc(-c4ccc(Cl)cc4)c(CCCCC(=O)O)nc3c2)n1 (stereo not shown) [compound 655, 5-(3-(4-chlorophenyl)-7-(methyl(1-(4-methylthiazol-2-yl)ethyl)carbamoyl)quinoxalin-2-yl)pentanoic acid]",2.1 to 20
8,"O=C(O)CCCCc1nc2cc(C(=O)N3CCCC34CCc3cc(F)ccc34)ccc2nc1-c1ccc(Cl)cc1 (stereo not shown) [compound 656, 5-(3-(4-chlorophenyl)-7-(5-fluoro-2,3-dihydrospiro [indene-1,2′-pyrrolidin]-1′-ylcarbonyl)quinoxalin-2-yl)pentanoic acid]",2.1 to 20
9,"CC(c1ccon1)N(C)C(=O)c1ccc2nc(-c3ccc(Cl)cc3)c(CCCCC(=O)O)nc2c1 (stereo not shown) [compound 657, 5-(3-(4-chlorophenyl)-7-((1-(isoxazol-3-yl)ethyl)(methyl)carbamoyl)quinoxalin-2-yl) pentanoic acid]",20.1 to 200
10,"O=C(O)CCCCc1nc2cc(C(=O)N3CCCC34CCc3ccncc34)ccc2nc1-c1ccc(Cl)cc1 (stereo not shown) [compound 658, 5-(3-(4-chloro-phenyl)-7-(5,6-dihydrospiro [cyclopenta[c]pyridine-7,2′-pyrrolidin]-1′-ylcarbonyl)quinoxalin-2-yl)pentanoic acid]",20.1 to 200
11,"O=C(O)CCCCc1nc2cc(C(=O)N3CCCC3c3nccs3)ccc2nc1-c1ccc(Cl)cc1 (stereo not shown) [compound 659, 5-(3-(4-chlorophenyl)-7-(2-(thiazol-2-yl)pyrrolidine-1-carbonyl)quinoxalin-2-yl)pentanoic acid]",20.1 to 200
12,"Cc1noc(C2CCCCN2C(=O)c2ccc3nc(-c4ccc(Cl)cc4)c(CCCCC(=O)O)nc3c2)n1 (stereo not shown) [compound 660, 5-(3-(4-chlorophenyl)-7-(2-(3-methyl-1,2,4-oxadiazol-5-yl)piperidine-1-carbonyl)quinoxalin-2-yl)pentanoic acid]",20.1 to 200
13,"O=C(O)CCCCc1nc2cc(C(=O)N3CCOC[C@H]3c3ccccc3)ccc2nc1-c1ccc(Cl)cc1 [compound 661, (R)-5-(3-(4-chlorophenyl)-7-(3-phenylmorphohne-4-carbonyl)quinoxalin-2-yl)pentanoic acid]",2.1 to 20
14,"O=C(O)CCCCc1nc2cc(C(=O)N3CCCC3c3ccccn3)ccc2nc1-c1ccc(Cl)cc1 (stereo not shown) [compound 662, 5-(3-(4-chlorophenyl)-7-(2-(pyridin-2-yl)pyrrolidine-1-carbonyl)quinoxalin-2-yl)pentanoic acid]",20.1 to 200
15,"CC1Cc2ccccc2CCN1C(=O)c1ccc2nc(-c3ccc(Cl)cc3)c(CCCCC(=O)O)nc2c1 (stereo not shown) [compound 663, 5-(3-(4-chlorophenyl)-7-(2-methyl-2,3,4,5-tetrahydro-1H-benzo[d]azepine-3-carbonyl)quinoxalin-2-yl)pentanoic acid]",2.1 to 20
16,"Cc1ccc(CN2CCN(C(=O)c3ccc4nc(-c5ccc(Cl)cc5)c(CCCCC(=O)O)nc4c3)CC2)cc1 [compound 664, 5-(3-(4-chlorophenyl)-7-(4-(4-methylbenzyl)piperazine-1-carbonyl)quinoxalin-2-yl)pentanoic acid]",2.1 to 20
17,"Cc1ccc(N2CCN(C(=O)c3ccc4nc(-c5ccc(Cl)cc5)c(CCCCC(=O)O)nc4c3)CC2)cc1 [compound 665, 5-(3-(4-chlorophenyl)-7-(4-(p-tolyl)piperazine-1-carbonyl)quinoxalin-2-yl)pentanoic acid]",2.1 to 20
18,"CN1CCN(C(=O)c2ccc3nc(-c4ccc(Cl)cc4)c(CCCCC(=O)O)nc3c2)C(c2ccccc2)C1 (stereo not shown) [compound 666, 5-(3-(4-chlorophenyl)-7-(4-methyl-2-phenylpiperazine-1-carbonyl)quinoxalin-2-yl)pentanoic acid]",2.1 to 20
19,"O=C(O)CCCCc1nc2cc(C(=O)N3CCN(Cc4cccc(F)c4)CC3)ccc2nc1-c1ccc(Cl)cc1 [compound 667, 5-(3-(4-chlorophenyl)-7-(4-(3-fluorobenzyl)piperazine-1-carbonyl)quinoxalin-2-yl)pentanoic acid]",2.1 to 20
20,"O=C(O)CCCCc1nc2cc(C(=O)N3CCn4cc(C(F)(F)F)nc4C3)ccc2nc1-c1ccc(Cl)cc1 [compound 668, 5-(3-(4-chlorophertyl)-7-(2-(trifluoromethyl)-5,6,7,8-tetrahydroimidazo[1,2-a]pyrazine-7-carbonyl)quinoxalin-2-yl)pentanoic acid]",20.1 to 200
21,"O=C(O)CCCCc1nc2cc(C(=O)N3CCN(c4ccc(Cl)cn4)CC3)ccc2nc1-c1ccc(Cl)cc1 [compound 669, 5-(3-(4-chlorophenyl)-7-(4-(5-chloropyridin-2-yl)piperazine-1-carbonyl)quinoxalin-2-yl)pentanoic acid]",2.1 to 20
22,"Cc1nc(CN2CCN(C(=O)c3ccc4nc(-c5ccc(Cl)cc5)c(CCCCC(=O)O)nc4c3)CC2)cs1 [compound 670, 5-(3-(4-chlorophenyl)-7-(4-((2-methylthiazol-4-yl)methyl)piperazine-1-carbonyl)quinoxalin-2-yl)pentanoic acid]",2.1 to 20
23,"Cn1cc(N2CCN(C(=O)c3ccc4nc(-c5ccc(Cl)cc5)c(CCCCC(=O)O)nc4c3)CC2)cn1 [compound 671, 5-(3-(4-chlorophenyl)-7-(4-(1-methyl-1H-pyrazol-4-yl)piperazine-1-carbonyl)quinoxalin-2-yl)pentanoic acid]",20.1 to 200
24,"C[C@@H]1CN(C(=O)c2ccc3nc(-c4ccc(Cl)cc4)c(CCCCC(=O)O)nc3c2)[C@@H](C)CN1c1ccccc1 [compound 672, 5-(3-(4-chlorophenyl)-7-((2S,5R)-2,5-dimethyl-4-phenylpiperazine-1-carbonyl)quinoxalin-2-yl)pentanoic acid]",20.1 to 200
